Results on 11 compounds are retold here after patent US9714213B2, “4-aminomethylbenzoic acid derivative” (TOA EIYO LTD., priority 2013, dated 2017).

Read-outs that look alike come from different tables or passages of the source.

Assay [1] addresses T1, human sGC (Homo sapiens, UniProt Q02153).
T1 construct: expressed in transfected cells; host or cells: CHO-K1 (Chinese hamster ovary) cells
T1 sequence (Q02153 1-619): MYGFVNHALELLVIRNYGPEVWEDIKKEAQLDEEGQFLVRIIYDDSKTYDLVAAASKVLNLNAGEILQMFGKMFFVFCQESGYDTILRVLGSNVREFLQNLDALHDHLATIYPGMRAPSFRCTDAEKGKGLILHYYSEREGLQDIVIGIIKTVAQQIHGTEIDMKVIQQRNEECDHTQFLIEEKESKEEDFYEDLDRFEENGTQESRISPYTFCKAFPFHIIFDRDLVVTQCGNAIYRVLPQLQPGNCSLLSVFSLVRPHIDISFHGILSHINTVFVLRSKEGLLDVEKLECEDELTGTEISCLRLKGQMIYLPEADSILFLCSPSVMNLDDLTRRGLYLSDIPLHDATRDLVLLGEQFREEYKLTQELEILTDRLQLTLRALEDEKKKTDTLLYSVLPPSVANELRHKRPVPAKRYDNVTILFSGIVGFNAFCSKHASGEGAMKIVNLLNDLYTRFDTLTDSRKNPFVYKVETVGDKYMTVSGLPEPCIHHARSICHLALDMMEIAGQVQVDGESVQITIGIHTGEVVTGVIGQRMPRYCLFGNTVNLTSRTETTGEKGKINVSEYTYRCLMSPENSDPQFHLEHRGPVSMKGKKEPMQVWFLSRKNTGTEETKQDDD
T1 sequence (Q02108 1-690 partner): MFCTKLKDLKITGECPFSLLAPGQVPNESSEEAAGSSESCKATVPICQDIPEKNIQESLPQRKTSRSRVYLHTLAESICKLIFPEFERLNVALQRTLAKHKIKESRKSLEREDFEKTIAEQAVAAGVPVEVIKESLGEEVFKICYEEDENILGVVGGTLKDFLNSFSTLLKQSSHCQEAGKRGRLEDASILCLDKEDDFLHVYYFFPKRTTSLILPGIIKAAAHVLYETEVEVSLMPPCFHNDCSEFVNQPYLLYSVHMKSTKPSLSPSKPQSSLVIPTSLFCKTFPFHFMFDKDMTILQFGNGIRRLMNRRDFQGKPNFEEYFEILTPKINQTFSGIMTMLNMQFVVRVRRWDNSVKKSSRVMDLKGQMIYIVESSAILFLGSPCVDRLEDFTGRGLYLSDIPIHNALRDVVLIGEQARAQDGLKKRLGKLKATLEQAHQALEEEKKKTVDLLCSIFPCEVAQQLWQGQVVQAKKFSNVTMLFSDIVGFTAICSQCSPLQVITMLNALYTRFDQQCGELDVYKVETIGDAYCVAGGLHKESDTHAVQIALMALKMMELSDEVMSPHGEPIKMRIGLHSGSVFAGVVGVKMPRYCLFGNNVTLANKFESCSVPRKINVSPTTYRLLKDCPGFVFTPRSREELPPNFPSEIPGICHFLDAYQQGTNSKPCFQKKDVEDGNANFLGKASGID
Nature of the assay: Maximum effect of sGC activation (intracellular Ca2+, Fura2-AM) in CHO-K1 cells stably expressing human sGC and mouse CNGA2. In kind it is cell-based. The conditions noted are these: increase rate of sGC activity vs DMSO control, test compound 10 μmol/L. On the procedure: For the assay, chinese hamster ovary cells (CHO-K1 cells) stably expressing both α and β subunits of human sGC and mouse cyclic nucleotide-gated channel (CNGA2) were used.
The CHO-K1 cells stably expressing human sGC and mouse CNGA2 was cultured at 37° C. on F-12 medium containing 10% (v/v) fetal bovine serum (FBS), penicillin (100 U/mL), streptomycin (100 μg/mL), G418 (250 μg/mL) and Zeocin (250 μg/mL). The cells were suspended in a culture medium, seeded on a 96 well plate, and then cultured at 37° C. for 24 hours. The cells were washed with Assay buffer 1 (140 mmol/L sodium chloride, 5 mmol/L potassium chloride, 0.5 mmol/L magnesium chloride, 0.01 mmol/L calcium chloride, 10 mmol/L glucose, 0.4 mmol/L magnesium sulfate, 10 mmol/L 4-(2-hydroxyethyl)piperazin-1-ylethanesulfonic acid and 125 μmol/L sulfinpyrazone, pH 7.4), and then added a solution containing Fura2-AM, a fluorescent Ca^2+ indicator, in Assay buffer 1 at […] concentration thereto as an indicator solution, and cultured at 37° C. for 60 minutes. The culture medium was removed, and the cells were washed with Assay buffer 1, and then added a solution containing the test compound thereto, and cultured at room temperature for 10 minutes. A plate was placed onto a fluorometer (FlexStation II, Molecular Devices), and the intracellular calcium concentration was determined as the ratio of fluorescent intensity, obtained from measurement using 340 nm and 380 nm as excitation wavelength and 510 nm as detection wavelength.
The solution of the test compound was prepared by dissolving each test compound in DMSO at 10 mmol/L, and then diluting the solution for the test concentration at 10 μmol/L with Assay buffer (140 mmol/L sodium chloride, 5 mmol/L potassium chloride, 0.5 mmol/L magnesium chloride, 1 mmol/L calcium chloride, 10 mmol/L glucose, 0.4 mmol/L magnesium sulfate, 10 mmol/L 4-(2-hydroxyethyl)piperazin-1-ylethanesulfonic acid, […] sulfinpyrazone, 100 μmol/L isobutyl methyl xanthine, and 10 μmol/L 1H-[1,2,4]-oxadiazol[4,3-a]quinoxaline-1-one (hereinafter, ODQ), pH 7.4). The evaluation in the absence of ODQ was performed similarly, except that ODQ was not added to Assay buffer 2. As a control solution, a DMSO solution was used instead of the test compound solution.
The activity of the test compound defined as the increase rate of the sGC activity (%) at the time of adding the solution of the test compound with respect to the sGC activity at the time of adding the control solution, was calculated by dividing the fluorescent intensity ratio at the time of adding the test compound by the fluorescent intensity ratio of the control solution, and subtracting the sGC activity at the time of adding the control solution (100%).
If sGC is activated in this assay, intracellular cGMP concentration increases and accordingly intracellular Ca^2+ concentration is increased by opening of CNGA2. Accordingly, sGC activation can be measured as the change of Ca^2+ concentration in the cell. […] Accordingly, it is possible to evaluate maximum sGC activation effect including heme-dependent activation in the absence of ODQ, and also possible to evaluate heme independent sGC activation effect in the presence of ODQ.

Assay [2] deals with rat ventral aorta. Nature of the assay: Blood vessel relaxation activity, phenylephrine-contracted rat ventral aorta ring specimen. The conditions noted are these: relaxation of 1 μmol/L phenylephrine contraction; EC50 without ODQ / EC50 with 10 μmol/L ODQ. Here is the method: A representative compound of the present invention was assayed for blood vessel relaxation activity according to the Test Example described below. In the assay, a rat (male, SD) was phlebotomized from the upper part of the heart under pentobarbital (30 mg/kg) anesthesia, and the ventral aorta was extracted. The connective tissue adhering around the blood vessel in the ventral aorta was removed in an ice-cooled Krebs-Henseleit solution (KH solution) (118 mmol/L sodium chloride, 4.7 mmol/L potassium chloride, 1.2 mmol/L magnesium sulfate, 1.2 mmol/L potassium dihydrogenphosphate, 25 mmol/L sodium hydrogen carbonate, 2.5 mmol/L calcium chloride and 10 mmol/L glucose, pH 7.4). Then, a ring specimen of 2 mm length was prepared, and fixed in 5 mL organ bath filled with the KH solution. The KH solution was maintained at 37° C., and a mixed gas of 95% O2 and 5% CO2 was ventilated. The specimen was stabilized with 1 g of the resting tension for 1 hour. In the meantime, the KH solution was exchanged twice. The tension of the specimen was recorded with a multichannel recorder through a pickup and an amplifier. After stabilization of the specimen, contraction was induced with 1 μmol/L phenylephrine (Phe), and cumulative administration of each compound (0.001, 0.01, 0.03, 0.1, 0.3, 1, 3, 10, 30, 100, 1000, 10000 nmol/L) was carried out. In the case of evaluation at the time of containing ODQ, 10 μmol/L ODQ was added 10 minutes before administration of Phe, and similar evaluation was performed.
EC50 value was calculated by Four-parameter Logistic Model with Assay Explorer (Accelrys, Inc.). Meanwhile, the solution of the test compound was prepared by dissolving the compound in DMSO to prepare solutions having the concentration of each test compound 1000 times higher than the final concentration.

[3] abbreviates: 10 μmol/L ODQ present, read-out: Emax (%) ODQ+ (Heme-independent).
The mark [4] stands for this setting: absence of ODQ, read-out: Emax (%) ODQ− (Heme-dependent).

In general, Emax refers to the size of the effect at its maximum, as opposed to the concentration needed. Take `O=C(O)CCCCN(Cc1ccc(C(=O)O)cc1)CC(OCc1ccc(CCc2ccccc2)cc1)c1ccccc1` (stereo not drawn) [Example 2, 4-{[N-(4-Carboxybutyl)-N-[2-[4-(2-phenylethyl)benzyloxy]-2-phenylethyl]amino]methyl}benzoic acid]: the Emax at 10 µM worked out at 102% in assay [1] (setting [3]) and 130% in assay [1] (setting [4]). The “EC50 Ratio (ODQ−/ODQ+)” value in assay [2] is 3.26.

In the case of `CC(C)(CCCN(Cc1ccc(C(=O)O)cc1)CC(OCc1ccc(CCc2ccccc2)cc1)c1ccccc1)C(=O)O` (stereo not drawn) [Example 16, 4-{[N-(4-Carboxy-4-methylpentyl)-N-[2-[4-(2-phenylethyl)benzyloxy]-2-phenylethyl]amino]methyl}benzoic acid], the maximal response (Emax) at 10 µM in assay [1] (setting [3]) was 132%; in assay [1] (setting [4]), 92.4%. Further, in assay [2], the “EC50 Ratio (ODQ−/ODQ+)” value is reported as 8.31.

As to `O=C(O)CCCCN(Cc1ccc(C(=O)O)cc1)CC(OCc1ccc(CCc2ccccc2)cc1)c1cccs1` (stereo not drawn) [Example 19], the figures for the Emax at 10 µM in assay [1] (setting [3]) and in assay [1] (setting [4]) were 122% and 114%, respectively. Moreover, the “EC50 Ratio (ODQ−/ODQ+)” value in assay [2] was determined as 6.20.

As for `Cc1cccc(C(CN(CCCCC(=O)O)Cc2ccc(C(=O)O)cc2)OCc2ccc(CCc3ccccc3)cc2)c1` (stereo not drawn) [Example 23, 4-{[N-(4-Carboxybutyl)-N-[2-(3-methylphenyl)-2-[4-(2-phenylethyl)benzyloxy]ethyl]amino]methyl}benzoic acid], the Emax at 10 µM is 113% in assay [1] (setting [3]) and 132% in assay [1] (setting [4]). The “EC50 Ratio (ODQ−/ODQ+)” value in assay [2] came to 6.88.

With `O=C(O)CCCCN(Cc1ccc(C(=O)O)cc1)CC(OCc1ccc(CCc2ccccc2)s1)c1ccccc1` (stereo not drawn) [Example 25, 4-{[N-(4-Carboxybutyl)-N-[2-[5-(2-phenylethyl)thiophen-2-ylmethoxy]-2-phenylethyl]amino]methyl}benzoic acid], the Emax at 10 µM in assay [1] (setting [3]) came out at 114%; in assay [1] (setting [4]), 130%. Further, the “EC50 Ratio (ODQ−/ODQ+)” value in assay [2] was 2.61.

As for `O=C(O)CCCCN(Cc1ccc(C(=O)O)cc1)CC(OCc1ccc(CCc2ccccc2)cc1)c1ccsc1` (stereo not drawn) [Example 26, 4-{[N-(4-Carboxybutyl)-N-[2-[4-(2-phenylethyl)benzyloxy]-2-(3-thienyl)ethyl]amino]methyl}benzoic acid], the figures for the Emax at 10 µM in assay [1] (setting [3]) and in assay [1] (setting [4]) were 110% and 92.6%, respectively. For the same compound, the “EC50 Ratio (ODQ−/ODQ+)” value in assay [2] was found to be 7.72.

On to `O=C(O)CCCCN(Cc1ccc(C(=O)O)cc1)CC(OCc1ccc(CCc2ccccc2)cc1)c1ccc(Cl)s1` (stereo not drawn) [Example 27, 4-{[N-(4-Carboxybutyl)-N-[2-[4-(2-phenylethyl)benzyloxy]-2-(5-chloro-2-thienyl)ethyl]amino]methyl}benzoic acid], for which the maximal response (Emax) at 10 µM in assay [1] (setting [3]) was 118%; in assay [1] (setting [4]) it was 187%. Moreover, in assay [2], the “EC50 Ratio (ODQ−/ODQ+)” value came out at 2.66.

`Cc1ccc(C(CN(CCCCC(=O)O)Cc2ccc(C(=O)O)c(F)c2)OCc2ccc(CCc3ccccc3)cc2)s1` (stereo not drawn) [Example 28, 4-{[N-(4-Carboxybutyl)-N-[2-[4-(2-phenylethyl)benzyloxy]-2-(5-methyl-2-thienyl)ethyl]amino]methyl}-2-fluorobenzoic acid]: the Emax at 10 µM in assay [1] (setting [3]) was found to be 114%; in assay [1] (setting [4]), 98%. Further, the “EC50 Ratio (ODQ−/ODQ+)” value in assay [2] stood at 2.99.

For the compound `O=C(O)CCCCN(Cc1ccc(C(=O)O)cc1)C[C@H](OCc1ccc(CCc2ccccc2)cc1)c1cccc(Cl)c1` [Example 29, (−)-4-{[N-(4-Carboxybutyl)-N-[(2R)-2-(3-chlorophenyl)-2-[4-(2-phenylethyl)benzyloxy]ethyl]amino]methyl}benzoic acid], the Emax at 10 µM worked out at 110% in assay [1] (setting [3]) and 98.2% in assay [1] (setting [4]). Besides, the “EC50 Ratio (ODQ−/ODQ+)” value in assay [2] was 9.66.

On to `O=C(O)CCCCN(Cc1ccc(C(=O)O)cc1)C[C@H](OCc1ccc(CCc2ccccc2)cc1)c1ccccc1` [Example 32, (−)-4-{[N-(4-Carboxybutyl)-N-[(2R)-2-[4-(2-phenylethyl)benzyloxy]-2-phenylethyl]amino]methyl}benzoic acid], for which the Emax at 10 µM in assay [1] (setting [3]) was 87.7%; in assay [1] (setting [4]) it was 128%. For the same compound, the “EC50 Ratio (ODQ−/ODQ+)” value in assay [2] was determined as 7.31.

For `O=C(O)CCCCN(Cc1ccc(C(=O)O)cc1)C[C@H](OCc1ccc(Oc2ccc(Cl)cc2)cc1)c1ccccc1` [Example 42, (−)-4-{[N-(4-Carboxybutyl)-N-[(2R)-2-[4-(4-chlorophenyloxy)benzyloxy]-2-phenylethyl]amino]methyl}benzoic acid], the Emax at 10 µM in assay [1] (setting [3]) came out at 127%; in assay [1] (setting [4]) it was 143%. Also, the “EC50 Ratio (ODQ−/ODQ+)” value in assay [2] is listed as 8.40.
